Source: PubChem BioAssay AID720512 (Broad Institute, 2013)
Active and inactive are the calls of the source. No rule for the calls is given here.

These compounds were tested against Toxin B (TcdB) glycohydrolase, Clostridioides difficile 630 (assay: TcdB glycohydrolase inhibitors, dose response, biochemical, cherry-pick, plate reader (AID 720512)). Conditions: recombinant TcdB glycohydrolase activity.

SMILES	AC50
Cc1ccc(N/N=C/c2c(O)n(-c3ccccc3)c(=O)[nH]c2=O)cc1	8.13 µM
CC(C)NC(=O)N1CC[C@@H]2[C@H]1c1cc(-c3ccccc3)ccc1N(C)[C@H]2CO	> 39 µM (inactive)
CC(=O)Oc1ccc(/C=N/NC(=O)CCSc2ccccc2)cc1	> 39 µM (inactive)
O=C(O)COn1c(-c2ccc(Cl)cc2)nc2ccc(Cl)cc21	> 39 µM (inactive)
Nc1ncc(S(=O)(=O)c2ccc([N+](=O)[O-])cc2)s1	> 39 µM (inactive)
CCC(=O)N1CC[C@@H]2[C@H]1c1cc(-c3ccccc3)ccc1N(C)[C@H]2CO	> 42 µM (inactive)

Same assay, conditions: recombinant TcdB glycohydrolase activity, at 19.5 µM (top of the series)

SMILES	activity change, negative = inhibition
CC(C)Cc1nnc(NC(=O)CCC(=O)NCc2ccccc2Cl)s1	inactive
COc1ccc(/C=C\c2onc(C)c2S(=O)(=O)N2CCC(C(=O)NCCC(C)C)CC2)cc1	inactive
CSc1cccc(NC(=O)CCc2ccccc2)c1	inactive
C[C@H]1CN([C@@H](C)CO)S(=O)(=O)c2ccc(-c3ccncc3)cc2O[C@@H]1CN(C)Cc1ccc(Oc2ccccc2)cc1	inactive
CCOC(=O)Nc1ccc(OC(=O)Oc2ccc(NC(=O)OCC)cc2)cc1	inactive
Cc1c(O)ccc(NC(=O)/C=C/c2ccccc2)c1C	inactive
O=C(N/N=C/c1cccc([N+](=O)[O-])c1)c1ccc(Br)cc1	inactive
Cc1ccc(CNCCCn2cnc(C(=O)Nc3ccc(C)c(C)c3)n2)o1	inactive
CCOC(=O)c1nnn(-c2nonc2N)c1-c1ccccc1Cl	inactive
COc1ccc(S(=O)(=O)N2CCOCC2)cc1NC(=O)COC(=O)c1[nH]c(C)c(C(C)=O)c1C	inactive
Cc1nn(C2CC(O)C(O)C(CO)O2)c(=O)[nH]c1=O (stereo not drawn)	inactive
S=C(NCCc1ccccc1)Nc1ncccn1	inactive
COCC(=O)N1CC[C@@H]2[C@H]1c1cc(-c3ccccc3)ccc1N(C)[C@H]2CO	inactive
CN(C)c1ccc(Cl)c(NC(N)=S)c1	inactive
CCOC(=O)C(=O)NNc1ccc(Cl)cc1	inactive
CC(=O)c1ccc(Nc2ccc(-c3ccccc3F)nn2)cc1	inactive
CC(=O)Nc1ccc(OC(=O)Oc2ccc(NC(C)=O)cc2)cc1	inactive
Cc1ccc(-c2csc(NC(=O)/C=C/c3ccco3)c2C(=O)O)cc1	inactive
CC(N)C(=O)NC(C(=O)N1CCCC1C(=O)NC(c1ccccc1)c1ccccc1)C(C)C (stereo not drawn)	inactive
O=C(c1ccc2c(c1)N(Cc1ccccc1)C(=O)c1ccccc1S2)N1CCCC1	inactive
CCn1c(SCC(=O)OC)nnc1-c1ccccc1	inactive

SMILES	activity change, negative = inhibition
COc1cc2ccccc2cc1C(=O)N/N=C/c1cccs1	inactive
NC(=O)c1ccc2c(=O)c(O)c(-c3cc(Cl)c(N)c(Cl)c3)[nH]c2c1	inactive
CSc1ccccc1NC(=O)C1=CC(c2ccc(C)cc2)=NS(=O)(=O)N1C	inactive
C=CCn1c(SCC(=O)N2CC(=O)Nc3ccccc32)nc2scc(-c3ccccc3)c2c1=O	inactive
C[C@@H]1CN([C@@H](C)CO)S(=O)(=O)c2ccc(-c3ccncc3)cc2O[C@@H]1CN(C)Cc1ccc(Oc2ccccc2)cc1	inactive
CN(C(=O)Cn1c(=O)oc2cc(S(=O)(=O)N3CCCC3)ccc21)C1CCCCC1	inactive
CC(=O)Nc1ccc(S(=O)(=O)Nc2nc3ccccc3nc2-n2ccc(=NC(=O)c3ccc(F)cc3)cc2)cc1	inactive
CN(C)/C=C(\C#N)C(=O)Nc1ccc(O)cc1F	inactive
NC(=O)C1(Nc2ccc(-c3ccc(Br)cc3)cc2)CCCC1	inactive
O=c1[nH]nc(-c2ccc(F)cc2)cc1Cc1ccccc1	inactive
Cc1ccccc1C(C(=O)NC1CCCCC1)N(C(=O)c1ccccn1)c1cccnc1 (stereo not drawn)	inactive
S=c1[nH]nc(-c2ccccn2)n1/N=C/c1ccc(Cl)cc1	inactive
COc1ccc(NC2CCCN(C(=O)CN3CCOC3=O)C2)cc1OC (stereo not drawn)	inactive
O=C(NCc1ccncc1)[C@@H]1CCCN1C(=O)[C@@H]1CCCN1	inactive
Cc1ccc(C(=O)OCC(=O)c2cc(C)n(CC3CCCO3)c2C)cc1 (stereo not drawn)	inactive
COc1cccc(/C=C/c2onc(C)c2S(=O)(=O)N2CCC(C(=O)NC3CCCCCC3)CC2)c1	inactive
Cc1cccc(/C=C/c2onc(C)c2S(=O)(=O)N2CCC(C(=O)NC(C)(C)C)CC2)c1	inactive
Nc1ccccc1-c1nc2ccncc2[nH]1	inactive
Cc1ccccc1S(=O)(=O)N1CCCc2nc(C)c(C)cc21	inactive
CCC(=O)Nc1ccc2c(c1)OC[C@H](C)N(C(=O)NC(C)C)C[C@H](C)[C@H](OC)CN(C)C2=O	inactive
c1ccc(-c2nnc(OCC3CCCO3)c3ccccc23)cc1 (stereo not drawn)	inactive

SMILES	activity change, negative = inhibition
COc1ccc(NS(=O)(=O)c2cc(N=Nc3c(O)[nH]c(=O)[nH]c3=O)ccc2Cl)cc1	inactive
CN1C(=O)c2cc(NC(=O)c3cccc(F)c3)ccc2OC[C@@H]2O[C@@H](CC(=O)NCC3CCCCC3)CC[C@@H]21	inactive
COc1ccc(-c2nc(N)ncc2-c2ccccc2OC)c(O)c1	inactive
CNC(C(=O)c1ccccc1)C(OC)c1cccc([N+](=O)[O-])c1 (stereo not drawn)	inactive
CCOC(=O)N1CCN(C(=S)NC(=O)c2ccc(F)c(F)c2)CC1	inactive
COc1ccc(NC(=O)c2cc(S(=O)(=O)N3CCc4ccccc43)cn2C)cc1OC	inactive
CC1CCN(CCCn2c(=S)[nH]c3c(sc4ccccc43)c2=O)CC1	inactive
C[C@H](CO)N1C[C@H](C)[C@@H](CN(C)C(=O)Nc2ccc(C(F)(F)F)cc2)Oc2ccc(NC(=O)C3CCCCC3)cc2C1=O	inactive
COc1ccccc1CNC(=O)CN(c1ccc(C)cc1)S(=O)(=O)c1c(C)n[nH]c1C	inactive
CC(Sc1nc(N)cc(=O)[nH]1)C(=O)NCC(=O)Nc1ccc(F)c(F)c1F (stereo not drawn)	inactive
O=C(C[C@@H]1CC[C@@H]2[C@H](COC[C@@H](O)CN2C(=O)c2ccccn2)O1)NC1CCC1	inactive
Cc1cc(C(=O)CSc2nnnn2-c2ccccc2)c(C)n1-c1ccc2c(c1)OCO2	inactive
CCc1ccccc1NC(=S)N(Cc1ccc(C(=O)O)cc1)Cc1ccc(OC)c(OC)c1	inactive
COc1ccc(Cl)cc1-n1c(=S)sc2c(=O)n(-c3ccc(F)cc3)c(SCC(=O)O)nc21	inactive
Cc1onc(-c2c(F)cccc2Cl)c1C(=O)Nc1nnc(C(F)(F)F)s1	inactive
O=C(N/N=C/c1ccccn1)c1ccc([N+](=O)[O-])cc1Cl	inactive
O=C(C[C@@H]1C[C@@H]2c3cc(NC(=O)c4ccc5c(c4)OCO5)ccc3O[C@@H]2[C@@H](CO)O1)NCc1cccc(F)c1	inactive
COc1ccc(C2=NS(=O)(=O)N(C)C(C(=O)N3CCc4ccccc4C3)=C2)cc1OC	inactive
CC1C(c2ccc3c(c2)OCO3)c2cc3c(cc2OC1N1CCOCC1)OCO3 (stereo not drawn)	inactive
Cc1c(CNC(=O)c2c([N+](=O)[O-])cnn2C)cnn1C	inactive
